Results as given in ChEMBL document CHEMBL1201862, “PubChem BioAssay data set” (2004).
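In this assay, cells in 96-well plates receive the compound at five concentrations for 48 hours. Endpoints are linearly interpolated between the surrounding concentrations. GI50 is the concentration that inhibits growth by half.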 Active and inactive are the calls of the source. Cut-off read from the data, not from the text of the source: active = GI50 up to about 1.1 µM and inactive = higher.

How the values were obtained:
Test in all cases: NCI anticancer screen, dose series, 48 h
786-0 = system: 786-0
A498 = system: A498
A549 = system: A549
ACHN = system: ACHN
BT-549 = system: BT-549
CAKI-1 = system: CAKI-1
CCRF-CEM = system: CCRF-CEM
COLO 205 = system: COLO 205
DU-145 = system: DU-145
EKVX = system: EKVX
HCC 2998 = system: HCC 2998
HCT-116 = system: HCT-116
HCT-15 = system: HCT-15
HOP-62 = system: HOP-62
HOP-92 = system: HOP-92
HT-29 = system: HT-29
Hs-578T = system: Hs-578T
IGROV-1 = system: IGROV-1
K562 = system: K562
KM12 = system: KM12
LOX IMVI = system: LOX IMVI
M14 = system: M14
MCF7 = system: MCF7
MDA-MB-231 = system: MDA-MB-231
MDA-MB-435 = system: MDA-MB-435
MDA-N = system: MDA-N
MOLT-4 = system: MOLT-4
Malme-3M = system: Malme-3M
NCI-H23 = system: NCI-H23
NCI-H460 = system: NCI-H460
NCI-H522 = system: NCI-H522
NCI/ADR-RES = system: NCI/ADR-RES
OVCAR-3 = system: OVCAR-3
OVCAR-4 = system: OVCAR-4
OVCAR-5 = system: OVCAR-5
OVCAR-8 = system: OVCAR-8
RPMI-8226 = system: RPMI-8226
SF-268 = system: SF-268
SF-295 = system: SF-295
SF-539 = system: SF-539
SK-MEL-28 = system: SK-MEL-28
SK-MEL-5 = system: SK-MEL-5
SK-OV-3 = system: SK-OV-3
SN12C = system: SN12C
SNB-19 = system: SNB-19
SNB-75 = system: SNB-75
SR = system: SR
SW-620 = system: SW-620
T47D = system: T47D
TK-10 = system: TK-10
U-251 = system: U-251
UACC-257 = system: UACC-257
UACC-62 = system: UACC-62
UO-31 = system: UO-31
HL-60 = system: HL-60
NCI-H226 = system: NCI-H226
PC-3 = system: PC-3
RXF 393 = system: RXF 393
SK-MEL-2 = system: SK-MEL-2

SMILES: O=C(O)C[n+]1cn(NC(=O)Cc2ccccc2)cn1
- GI50 (786-0): > 10 µM (inactive)
- GI50 (A498): > 10 µM (inactive)
- GI50 (A549): > 10 µM (inactive)
- GI50 (ACHN): > 10 µM (inactive)
- GI50 (BT-549): > 10 µM (inactive)
- GI50 (CAKI-1): > 10 µM (inactive)
- GI50 (CCRF-CEM): > 10 µM (inactive)
- GI50 (COLO 205): > 10 µM (inactive)
- GI50 (DU-145): > 10 µM (inactive)
- GI50 (EKVX): 7.16 µM (inactive)
- GI50 (HCC 2998): > 10 µM (inactive)
- GI50 (HCT-116): > 10 µM (inactive)
- GI50 (HCT-15): > 10 µM
- GI50 (HOP-62): > 10 µM (inactive)
- GI50 (HOP-92): > 10 µM (inactive)
- GI50 (HT-29): > 10 µM (inactive)
- GI50 (Hs-578T): 0.158 µM (active)
- GI50 (IGROV-1): > 10 µM (inactive)
- GI50 (K562): > 10 µM (inactive)
- GI50 (KM12): > 10 µM (inactive)
- GI50 (LOX IMVI): > 10 µM (inactive)
- GI50 (M14): > 10 µM (inactive)
- GI50 (MCF7): > 10 µM (inactive)
- GI50 (MDA-MB-231): > 10 µM (inactive)
- GI50 (MDA-MB-435): > 10 µM (inactive)
- GI50 (MDA-N): > 10 µM (inactive)
- GI50 (MOLT-4): > 10 µM (inactive)
- GI50 (Malme-3M): > 10 µM (inactive)
- GI50 (NCI-H23): > 10 µM (inactive)
- GI50 (NCI-H460): > 10 µM (inactive)
- GI50 (NCI-H522): > 10 µM (inactive)
- GI50 (NCI/ADR-RES): > 10 µM (inactive)
- GI50 (OVCAR-3): > 10 µM (inactive)
- GI50 (OVCAR-4): > 10 µM (inactive)
- GI50 (OVCAR-5): > 10 µM (inactive)
- GI50 (OVCAR-8): > 10 µM (inactive)
- GI50 (RPMI-8226): 0.501 µM (active)
- GI50 (SF-268): > 10 µM (inactive)
- GI50 (SF-295): > 10 µM (inactive)
- GI50 (SF-539): > 10 µM (inactive)
- GI50 (SK-MEL-28): > 10 µM (inactive)
- GI50 (SK-MEL-5): > 10 µM (inactive)
- GI50 (SK-OV-3): > 10 µM (inactive)
- GI50 (SN12C): > 10 µM (inactive)
- GI50 (SNB-19): > 10 µM (inactive)
- GI50 (SNB-75): > 10 µM (inactive)
- GI50 (SR): > 10 µM (inactive)
- GI50 (SW-620): > 10 µM (inactive)
- GI50 (T47D): > 10 µM (inactive)
- GI50 (TK-10): > 10 µM (inactive)
- GI50 (U-251): > 10 µM (inactive)
- GI50 (UACC-257): > 10 µM (inactive)
- GI50 (UACC-62): 0.664 µM (active)
- GI50 (UO-31): > 10 µM (inactive)

SMILES: CCN(CC)CCOC(c1cc(OC)ccc1OC)c1ccc2n1-c1ccccc1OC2 (configuration not stated)
- GI50 (786-0): 15.6 µM (inactive)
- GI50 (A498): 11.8 µM (inactive)
- GI50 (A549): 14 µM (inactive)
- GI50 (ACHN): 13.8 µM (inactive)
- GI50 (BT-549): 12.7 µM (inactive)
- GI50 (CAKI-1): 14.9 µM (inactive)
- GI50 (CCRF-CEM): 3.25 µM (inactive)
- GI50 (COLO 205): 5.42 µM (inactive)
- GI50 (DU-145): 22.9 µM (inactive)
- GI50 (EKVX): 16.1 µM (inactive)
- GI50 (HCC 2998): 5.31 µM (inactive)
- GI50 (HCT-116): 12.6 µM (inactive)
- GI50 (HCT-15): 11.5 µM
- GI50 (HL-60): 13.2 µM (inactive)
- GI50 (HOP-62): 16.4 µM (inactive)
- GI50 (HOP-92): 1.89 µM (inactive)
- GI50 (HT-29): 3.41 µM (inactive)
- GI50 (Hs-578T): 13.7 µM (inactive)
- GI50 (IGROV-1): 7 µM (inactive)
- GI50 (K562): 7.23 µM (inactive)
- GI50 (KM12): 16.5 µM (inactive)
- GI50 (LOX IMVI): 11.5 µM (inactive)
- GI50 (M14): 15.7 µM (inactive)
- GI50 (MCF7): 14.6 µM (inactive)
- GI50 (MDA-MB-231): 2.09 µM (inactive)
- GI50 (MDA-MB-435): 10.5 µM (inactive)
- GI50 (MDA-N): 13.6 µM (inactive)
- GI50 (Malme-3M): 18.5 µM (inactive)
- GI50 (NCI-H226): 3.98 µM (inactive)
- GI50 (NCI-H23): 12.9 µM (inactive)
- GI50 (NCI-H460): 12.4 µM (inactive)
- GI50 (NCI-H522): 15.2 µM (inactive)
- GI50 (NCI/ADR-RES): 2.57 µM (inactive)
- GI50 (OVCAR-3): 15.7 µM (inactive)
- GI50 (OVCAR-4): 13.9 µM (inactive)
- GI50 (OVCAR-5): 15.8 µM (inactive)
- GI50 (OVCAR-8): 13.2 µM (inactive)
- GI50 (PC-3): 12.8 µM (inactive)
- GI50 (RPMI-8226): 3.44 µM (inactive)
- GI50 (RXF 393): 8.91 µM (inactive)
- GI50 (SF-268): 14.5 µM (inactive)
- GI50 (SF-295): 10.4 µM (inactive)
- GI50 (SK-MEL-28): 15 µM (inactive)
- GI50 (SK-MEL-2): 13.1 µM (inactive)
- GI50 (SK-MEL-5): 10.4 µM (inactive)
- GI50 (SN12C): 2.48 µM (inactive)
- GI50 (SNB-19): 15.7 µM (inactive)
- GI50 (SNB-75): 2.31 µM (inactive)
- GI50 (SW-620): 8.85 µM (inactive)
- GI50 (T47D): 24 µM (inactive)
- GI50 (TK-10): 12.1 µM (inactive)
- GI50 (U-251): 14.9 µM (inactive)
- GI50 (UACC-257): 16 µM (inactive)
- GI50 (UACC-62): 2.39 µM (inactive)
- GI50 (UO-31): 11 µM (inactive)

SMILES: O=C(/C=C(\S/C=C(/c1ccccc1)N1CCn2c(C(=O)c3ccccc3)c(C(=O)c3ccccc3)c(C(=O)c3ccccc3)c21)C(=O)c1ccccc1)c1ccccc1
- GI50 (786-0): > 10 µM (inactive)
- GI50 (A549): > 10 µM (inactive)
- GI50 (ACHN): > 10 µM (inactive)
- GI50 (BT-549): > 10 µM (inactive)
- GI50 (CAKI-1): > 10 µM (inactive)
- GI50 (CCRF-CEM): > 10 µM (inactive)
- GI50 (COLO 205): > 10 µM (inactive)
- GI50 (DU-145): > 10 µM (inactive)
- GI50 (EKVX): > 10 µM (inactive)
- GI50 (HCC 2998): > 10 µM (inactive)
- GI50 (HCT-116): > 10 µM (inactive)
- GI50 (HCT-15): > 10 µM
- GI50 (HL-60): > 10 µM (inactive)
- GI50 (HOP-62): > 10 µM (inactive)
- GI50 (HOP-92): > 10 µM (inactive)
- GI50 (HT-29): > 10 µM (inactive)
- GI50 (Hs-578T): > 10 µM (inactive)
- GI50 (IGROV-1): > 10 µM (inactive)
- GI50 (K562): > 10 µM (inactive)
- GI50 (KM12): > 10 µM (inactive)
- GI50 (M14): > 10 µM (inactive)
- GI50 (MCF7): > 10 µM (inactive)
- GI50 (MDA-MB-231): > 10 µM (inactive)
- GI50 (MDA-MB-435): > 10 µM (inactive)
- GI50 (MDA-N): > 10 µM (inactive)
- GI50 (MOLT-4): > 10 µM (inactive)
- GI50 (Malme-3M): > 10 µM (inactive)
- GI50 (NCI-H23): > 10 µM (inactive)
- GI50 (NCI-H460): > 10 µM (inactive)
- GI50 (NCI-H522): > 10 µM (inactive)
- GI50 (NCI/ADR-RES): > 10 µM (inactive)
- GI50 (OVCAR-3): > 10 µM (inactive)
- GI50 (OVCAR-4): > 10 µM (inactive)
- GI50 (OVCAR-5): > 10 µM (inactive)
- GI50 (OVCAR-8): > 10 µM (inactive)
- GI50 (PC-3): > 10 µM (inactive)
- GI50 (RPMI-8226): > 10 µM (inactive)
- GI50 (SF-268): > 10 µM (inactive)
- GI50 (SF-295): > 10 µM (inactive)
- GI50 (SF-539): > 10 µM (inactive)
- GI50 (SK-MEL-28): > 10 µM (inactive)
- GI50 (SK-MEL-2): > 10 µM (inactive)
- GI50 (SK-MEL-5): > 10 µM (inactive)
- GI50 (SK-OV-3): > 10 µM (inactive)
- GI50 (SN12C): > 10 µM (inactive)
- GI50 (SNB-19): > 10 µM (inactive)
- GI50 (SNB-75): > 10 µM (inactive)
- GI50 (SW-620): > 10 µM (inactive)
- GI50 (T47D): > 10 µM (inactive)
- GI50 (TK-10): > 10 µM (inactive)
- GI50 (U-251): > 10 µM (inactive)
- GI50 (UACC-257): > 10 µM (inactive)
- GI50 (UACC-62): > 10 µM (inactive)
